Data set [1] concerns the target T1, SOD1-A4V-Halo (Homo sapiens, UniProt P00441, A5V). Kind of data set: In vitro heat-induced aggregation of SOD1-A4V-Halo conjugates. It counts as biochemical. An excerpt:
(§1) (B-C) Excitation and emission spectra of 4 (with misfolded oligomers of SOD1-A4V-Halo) and 5 (with insoluble aggregates of SOD1-A4V-Halo).
The inventors installed Halo-tag reactive warhead to 2, resulting in 5.
Target sequence in this assay (P00441 with tags, fused parts or gaps A5V): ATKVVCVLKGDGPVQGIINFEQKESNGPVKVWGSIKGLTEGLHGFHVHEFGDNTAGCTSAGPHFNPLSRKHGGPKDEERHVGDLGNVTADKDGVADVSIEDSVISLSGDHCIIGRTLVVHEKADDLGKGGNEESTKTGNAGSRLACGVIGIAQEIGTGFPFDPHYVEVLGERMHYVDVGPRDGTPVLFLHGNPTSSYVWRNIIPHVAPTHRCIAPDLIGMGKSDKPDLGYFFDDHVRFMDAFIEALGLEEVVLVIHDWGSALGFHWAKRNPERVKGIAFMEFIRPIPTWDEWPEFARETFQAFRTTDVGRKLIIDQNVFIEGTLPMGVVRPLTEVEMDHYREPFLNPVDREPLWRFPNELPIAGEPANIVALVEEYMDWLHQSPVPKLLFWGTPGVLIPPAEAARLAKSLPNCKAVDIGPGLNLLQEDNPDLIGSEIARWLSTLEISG

Data set [2] deals with T2, Htt-110Q-Halo (Homo sapiens, UniProt P42858).
T2 construct: using the Huntingtin exon 1 protein (Htt) with expansion of a polyglutamine tract within its N-terminal domain; expressed in transfected cells; host or cells: HEK293T
T2 sequence (P42858 with tags, fused parts or gaps): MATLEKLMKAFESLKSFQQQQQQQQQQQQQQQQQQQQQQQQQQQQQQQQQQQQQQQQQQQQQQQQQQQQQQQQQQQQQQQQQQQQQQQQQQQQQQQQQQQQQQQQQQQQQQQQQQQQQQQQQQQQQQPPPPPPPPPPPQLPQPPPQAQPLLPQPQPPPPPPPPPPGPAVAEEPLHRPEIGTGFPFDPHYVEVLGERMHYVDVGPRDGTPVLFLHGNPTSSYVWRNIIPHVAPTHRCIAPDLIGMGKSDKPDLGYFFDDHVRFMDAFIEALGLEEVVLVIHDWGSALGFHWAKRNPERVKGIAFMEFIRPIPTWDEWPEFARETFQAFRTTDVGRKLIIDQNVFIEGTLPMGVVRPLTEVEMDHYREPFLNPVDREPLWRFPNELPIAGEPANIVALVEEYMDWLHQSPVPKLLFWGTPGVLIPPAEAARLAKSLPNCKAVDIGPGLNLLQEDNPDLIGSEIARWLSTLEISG
As to the kind of experiment: Two-color imaging of Htt-110Q-Halo in HEK293T cells. The class given is cell-based.
Description: as §1
(§2) Combination of 4 and 5 enables a two-color imaging strategy to differentiate insoluble aggregates from soluble oligomers. The inventors carried out live cell imaging experiments, wherein 4 or 5 was used to visualize aggregation of POI-Halo fusion proteins in HEK293T cells. […] To this end, the inventors labeled HEK293T cells expressing SOD1-A4V-Halo simultaneously with 4 and 5 (both at 0.5 μM) for 24 h and treated cells with 5 μM MG132 for 8 h. […] The inventors further carried out experiments using Htt-PolyQ with 110 glutamine repeats (Htt-110Q-Halo).

Data set [3] concerns Htt-110Q-Halo. The data set is described as above. It counts as cell-based, human. The conditions noted are these: control.
Description: as §1, §2

In data set [4] the target is T1, SOD1-A4V-Halo. As to the kind of experiment: Two-color imaging of SOD1-A4V-Halo in HEK293T cells under MG132. The class given is cell-based. The arrangement: expressed in transfected cells; host or cells: HEK293T. The conditions noted are these: 4 and 5 both at 0.5 μM, 5 μM MG132 for 8 h.
Description: as §1, §2
Target sequence in this assay (P00441 with tags, fused parts or gaps A5V limits assumed): as the sequence (P00441 with tags, fused parts or gaps A5V) above

The mark [5] stands for this setting: 4 with misfolded oligomers, 5 with insoluble aggregates of SOD1-A4V-Halo.

For the molecule `CC1=N/C(=C\c2ccc(N(C)C)cc2)C(=O)N1CC(=O)N[C@H]1CC[C@H](C(=O)NCCOCCOCCCCCCCl)CC1` [Compound 5], in data set [1], the molar extinction coefficient is 23,716 M^−1·cm^−1. In data set [1] (setting [5]), this molecule yielded an Em of 520 nm and an Ex of 450 nm. Besides, the “fluorescence of Htt-110Q-Halo inclusions” value in data set [2] was “exhibit fluorescence from both 4 and 5”. Further, the “fluorescence in cells co-expressing Halo-tag and Htt-110Q-mCherry” value in data set [3] is “fluorescence was not observed”. Moreover, the “fluorescence of perinuclear SOD1 A4V-Halo granules” value in data set [4] is on record as “dark fluorescence to a background level”.
